Data as given in ChEMBL document CHEMBL1201862, “PubChem BioAssay data set” (2004).
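These data come from cells grown in 96-well plates and exposed to compound for 48 hours at five concentrations. The concentration for 50% growth inhibition is given as GI50.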 Active and inactive are the calls of the source. Cut-off read from the data, not from the text of the source: active = GI50 up to about 1.1 µM and inactive = higher.

Tests used:
Assay in all cases: inhibition of tumour cell growth, NCI panel, 48 h
ACHN = test system: ACHN
CCRF-CEM = test system: CCRF-CEM
COLO 205 = test system: COLO 205
DU-145 = test system: DU-145
HCC 2998 = test system: HCC 2998
HCT-116 = test system: HCT-116
M14 = test system: M14
MDA-MB-435 = test system: MDA-MB-435
Malme-3M = test system: Malme-3M
OVCAR-3 = test system: OVCAR-3
OVCAR-4 = test system: OVCAR-4
PC-3 = test system: PC-3
RXF 393 = test system: RXF 393
SF-268 = test system: SF-268
SF-295 = test system: SF-295
SF-539 = test system: SF-539
SK-OV-3 = test system: SK-OV-3
UACC-62 = test system: UACC-62
HOP-92 = test system: HOP-92
MDA-N = test system: MDA-N

Measured: GI50

COC(=O)C1=C(N)C2=C(N)Oc3ccccc3C2CC1=C(C#N)C#N (stereo not given)
inactive: ACHN 24.5 µM | CCRF-CEM 24.2 µM | COLO 205 22.5 µM | DU-145 26.5 µM | HCC 2998 17.9 µM | HCT-116 23.5 µM | M14 19.4 µM | MDA-MB-435 34.8 µM | Malme-3M 21.6 µM | OVCAR-3 25.6 µM | OVCAR-4 30.2 µM | PC-3 28.1 µM | RXF 393 26 µM | SF-268 29.7 µM | SF-295 25 µM | SF-539 43.6 µM | SK-OV-3 31.4 µM | UACC-62 18.1 µM

CC1=NN(c2nc(N)nc(-c3sccc3N)n2)C(C)(C)C1
inactive: ACHN > 100 µM | CCRF-CEM 43.6 µM | COLO 205 79.1 µM | DU-145 > 100 µM | HCC 2998 > 100 µM | HCT-116 96.4 µM | HOP-92 > 100 µM | M14 23.9 µM | MDA-MB-435 45 µM | MDA-N 75.9 µM | Malme-3M 47.3 µM | OVCAR-3 > 100 µM | OVCAR-4 21.7 µM | SF-268 > 100 µM | SF-295 92.5 µM | SF-539 > 100 µM | SK-OV-3 > 100 µM | UACC-62 58.3 µM

COc1ccc(/C=C2\N=C3NC(=O)C(N4CCOCC4)=C(N)N3C2=O)cc1
inactive: ACHN 75.9 µM | CCRF-CEM > 100 µM | COLO 205 > 100 µM | DU-145 > 100 µM | HCC 2998 > 100 µM | HCT-116 > 100 µM | HOP-92 > 100 µM | M14 > 100 µM | MDA-MB-435 > 100 µM | MDA-N > 100 µM | Malme-3M > 100 µM | OVCAR-4 31.8 µM | RXF 393 46.7 µM | SF-268 76.2 µM | SF-295 59.7 µM | SF-539 > 100 µM | SK-OV-3 > 100 µM

O=c1[nH]c(=O)c2ncn(-c3ccc([N+](=O)[O-])cn3)c2[nH]1
inactive: ACHN > 100 µM | CCRF-CEM > 100 µM | COLO 205 > 100 µM | DU-145 > 100 µM | HCC 2998 > 100 µM | HCT-116 > 100 µM | HOP-92 > 100 µM | M14 > 100 µM | MDA-MB-435 > 100 µM | Malme-3M 2.79 µM | OVCAR-3 > 100 µM | OVCAR-4 > 100 µM | PC-3 > 100 µM | RXF 393 > 100 µM | SF-268 > 100 µM | SF-295 > 100 µM | SF-539 > 100 µM | SK-OV-3 > 100 µM | UACC-62 74.1 µM

O=C(O)C(F)(OC(F)(F)C(F)(F)C(F)(F)F)C(F)(F)F (stereo not given)
inactive: ACHN > 100 µM | COLO 205 > 100 µM | DU-145 > 100 µM | HCC 2998 > 100 µM | HCT-116 > 100 µM | HOP-92 > 100 µM | M14 > 100 µM | MDA-MB-435 > 100 µM | Malme-3M > 100 µM | OVCAR-3 > 100 µM | OVCAR-4 > 100 µM | PC-3 > 100 µM | RXF 393 > 100 µM | SF-268 > 100 µM | SF-295 > 100 µM | SF-539 > 100 µM | SK-OV-3 > 100 µM | UACC-62 > 100 µM

CC1N(C)C(=O)OC12CCN(CCCC(=O)c1ccc(F)cc1)CC2 (stereo not given)
inactive: ACHN > 100 µM | CCRF-CEM > 100 µM | COLO 205 > 100 µM | DU-145 > 100 µM | HCT-116 > 100 µM | M14 > 100 µM | MDA-MB-435 > 100 µM | MDA-N > 100 µM | Malme-3M > 100 µM | OVCAR-3 > 100 µM | PC-3 > 100 µM | RXF 393 > 100 µM | SF-268 > 100 µM | SF-295 > 100 µM | SF-539 > 100 µM | SK-OV-3 > 100 µM | UACC-62 > 100 µM

CCOC(=O)c1cn2c(n1)sc1cccc(C)c12
inactive: ACHN > 100 µM | COLO 205 > 100 µM | DU-145 > 100 µM | HCC 2998 > 100 µM | HCT-116 > 100 µM | M14 > 100 µM | MDA-N > 100 µM | Malme-3M > 100 µM | OVCAR-3 > 100 µM | PC-3 > 100 µM | RXF 393 > 100 µM | SF-268 > 100 µM | SF-295 > 100 µM | SF-539 > 100 µM | SK-OV-3 > 100 µM | UACC-62 > 100 µM

COc1ccc2c(c1C)C(=O)C(O)(CC=C(C)C)O2 (stereo not given)
inactive: ACHN > 100 µM | CCRF-CEM > 100 µM | COLO 205 > 100 µM | DU-145 > 100 µM | HCC 2998 > 100 µM | HCT-116 > 100 µM | M14 > 100 µM | MDA-MB-435 > 100 µM | MDA-N > 100 µM | Malme-3M > 100 µM | OVCAR-3 > 100 µM | PC-3 62.8 µM | SF-268 > 100 µM | SF-295 > 100 µM | SF-539 > 100 µM | SK-OV-3 > 100 µM | UACC-62 > 100 µM

CCCCCCCCCCCCOP(=O)(O)OP(=O)(O)OCC1OC(n2ccc(N)nc2=O)CC1O (stereo not given)
inactive: ACHN > 100 µM | CCRF-CEM > 100 µM | COLO 205 > 100 µM | HCC 2998 > 100 µM | HCT-116 > 100 µM | HOP-92 > 100 µM | M14 > 100 µM | MDA-MB-435 > 100 µM | MDA-N > 100 µM | Malme-3M > 100 µM | OVCAR-3 > 100 µM | OVCAR-4 > 100 µM | PC-3 > 100 µM | RXF 393 > 100 µM | SF-268 > 100 µM | SF-295 > 100 µM | SF-539 > 100 µM | SK-OV-3 > 100 µM | UACC-62 > 100 µM

O=C1CSC(c2c[nH]c3ccccc23)N1c1cccc(Cl)c1 (stereo not given)
inactive: ACHN 24.2 µM | CCRF-CEM 31.9 µM | COLO 205 50.7 µM | DU-145 > 100 µM | HCC 2998 54.3 µM | HCT-116 29.5 µM | HOP-92 60.4 µM | M14 49.1 µM | MDA-MB-435 33.6 µM | MDA-N 36.9 µM | OVCAR-3 27.9 µM | OVCAR-4 38 µM | RXF 393 > 100 µM | SF-268 89.5 µM | SF-295 44.1 µM | SF-539 61.1 µM | SK-OV-3 > 100 µM | UACC-62 45.8 µM

CCOC(=O)c1nc2ccccc2nc1NCc1ccc(Cl)cc1Cl
inactive: ACHN > 100 µM | CCRF-CEM > 100 µM | COLO 205 > 100 µM | HCT-116 > 100 µM | HOP-92 > 100 µM | M14 > 100 µM | MDA-MB-435 97.9 µM | MDA-N 96.8 µM | Malme-3M > 100 µM | OVCAR-3 > 100 µM | OVCAR-4 > 100 µM | PC-3 > 100 µM | RXF 393 > 100 µM | SF-268 > 100 µM | SF-295 > 100 µM | SF-539 > 100 µM | SK-OV-3 > 100 µM | UACC-62 > 100 µM
